The Ki is the equilibrium dissociation constant of an inhibitor or competing ligand from its target. A lower Ki goes with higher affinity.

These results are taken from publication PMC11943675, “Studies of Piper auritum Kuntz’s Mutagenic and Antimutagenic Properties Using the Ames Test” (Metabolites, 2025).

Where “and” joins values, the source holds several entries; their conditions need not be identical. Identical values can stand only once. Like-named read-outs stand apart in the source and are kept apart here.

Data set [1] has as its system S. typhimurium TA1535. Format: cell-based, Salmonella typhimurium. The conditions noted are these: positive mutagen. The procedure: (§1) The study was carried out according to the indications of Maron and Ames, as well as with the recommendations expressed by the OCDE with respect to this assay. The Salmonella typhimurium strains used were TA98, TA100, TA102, TA1535, and TA1537.
(§2) In this case, the concentrations used were 10, 50, 100, 500, and 1000 µg/plate. Both studies were performed without and with the inclusion of the S9 fraction. In the last case, the S9 fraction was mixed with 5 mM glucose-6 phosphate, 4 mM NADPH, 8 mM MgCl2, and phosphate buffer at pH 7.4. The reaction mixture with or without S9 was placed in Petri dishes containing minimum agar plus glucose and Vogel–Bonner salts and left at 37 °C for 48 h. Finally, the number of revertant colonies (His^+) in each treatment was counted. Importantly, we used different mutagens as positive controls depending on the strain.
(§3) The toxicity of the tested agents was assessed by observing background bacterial growth on minimal agar plates due to traces of histidine in the medium.

The test system of data set [2] is S. typhimurium TA1537. Kind of data set: Ames test (Salmonella/microsome mutagenicity assay), strain TA1537. Format: cell-based, Salmonella typhimurium. The protocol: as §1, §2, §3
In general terms: The Ames test uses bacterial strains that need an amino acid and regain growth without it when mutated back.

The test system of data set [3] is S. typhimurium TA102. Kind of data set: Ames test (Salmonella/microsome mutagenicity assay), strain TA102. Format: cell-based, Salmonella typhimurium. The protocol: as §1, §2, §3
The subject of data set [4] is S. typhimurium TA98. Kind of data set: Ames test (Salmonella/microsome mutagenicity assay), strain TA98. The data set is classed as cell-based, Salmonella typhimurium. The protocol: as §1, §2, §3
In data set [5] the test system is S. typhimurium TA100. Kind of data set: Ames test (Salmonella/microsome mutagenicity assay), strain TA100. The data set is classed as cell-based, Salmonella typhimurium. The protocol:
as §1, §2, §3

Data set [6] has as its target T1, human CYP1A1 (Homo sapiens, UniProt P04798).
T1 sequence (P04798 1-512): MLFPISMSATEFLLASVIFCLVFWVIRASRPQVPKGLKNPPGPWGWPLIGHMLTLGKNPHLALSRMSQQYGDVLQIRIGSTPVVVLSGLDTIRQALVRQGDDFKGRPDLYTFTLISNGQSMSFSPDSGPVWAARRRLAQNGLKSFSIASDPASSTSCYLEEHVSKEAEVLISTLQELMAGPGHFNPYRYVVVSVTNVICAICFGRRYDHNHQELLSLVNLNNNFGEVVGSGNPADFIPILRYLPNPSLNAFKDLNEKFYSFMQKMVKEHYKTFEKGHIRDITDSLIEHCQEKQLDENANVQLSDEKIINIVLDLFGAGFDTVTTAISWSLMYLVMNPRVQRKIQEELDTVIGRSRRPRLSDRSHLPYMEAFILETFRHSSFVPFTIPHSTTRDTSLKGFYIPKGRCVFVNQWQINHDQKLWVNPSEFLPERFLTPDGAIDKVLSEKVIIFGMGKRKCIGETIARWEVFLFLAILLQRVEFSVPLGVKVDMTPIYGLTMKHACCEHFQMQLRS
Kind of data set: biochemical.
Method: (§4) The protein content was estimated via the Bradford assay.
(§5) To determine the type of inhibition, an incubation volume of 200 μL containing human CYP1A1 bacterial membranes (80 μg) and 0.5 mM NADPH in buffer pH 7.6 (50 mM Tris–HCl and 25 mM MgCl2) was used.

Data set [7] deals with T1, human CYP1A1. The settings on record: nonlinear regression and Lineweaver–Burk plots.
Method: as §4, §5
Data set [8] concerns rat hepatocytes. The settings on record: cited from earlier work.
Data set [9] deals with strain TA98 of S. typhimurium. The conditions noted are these: cited from earlier work.
For data set [10], the system named is S. typhimurium TA98. The conditions noted are these: strain TA98; cited from earlier work.
The subject of data set [11] is mouse bone marrow. The conditions noted are these: cited from earlier work.
Data set [12] concerns Salmonella typhimurium. The conditions noted are these: cited from earlier work.
Data set [13] has as its system Salmonella typhimurium strains TA98, TA100, TA102, TA1535, and TA1537. Kind of data set: Ames test, overall verdict over the five strains. Format: cell-based. The protocol: as §1, §2, §3

As for `[N-]=[N+]=[N-].[Na+]` [sodium azide], the “His^+ Revertants” value in [1] (TA1535 (−S9), 1 µg) is reported as 481 ± 28 ^3.

In the case of `CC1=NN(c2ccc([N+](=O)[O-])cc2)C(=O)C1[N+](=O)[O-]` (stereo not drawn) [picrolonic acid, reference compound], in data set [2] (positive mutagen, TA1537 (−S9), 100 µg), the “His^+ Revertants” value was 63 ± 2 ^5.

For the compound `Nc1ccc2cc3ccccc3cc2c1` [aminoanthracene, 2-aminoanthracene, reference compound], the “His^+ Revertants” value was 371 ± 20 ^4 in [1] (TA1535 (+S9), 2 µg); 2080 ± 27 ^7 in data set [3] (positive mutagen, TA102 (+S9), 5 µg); 120 ± 12 ^4 in data set [2] (positive mutagen, TA1537 (+S9), 2 µg).

As for `O=[N+]([O-])c1ccc2c(c1)Cc1ccccc1-2` [2-nitrofluorene, reference compound], the “His^+ Revertants” value is 2419 ± 169 ^1 and 2070 ± 44 ^1 in [4] (positive mutagen, TA98 (−S9), 5 µg); 1909 ± 428 ^1 in data set [5] (positive mutagen, TA100 (−S9), 5 µg).

For `C=CCc1ccc2c(c1)OCO2` [safrole, 5-(2-propenyl)-1,3-benzodioxone], the inhibition constant Ki in [6] is 0.38 µM. Further, the type of inhibition entry in data set [7] is given as “competitive inhibition”. Also, in data set [8], the “DNA adducts and chromosomal aberrations” value is “induction of DNA adducts and chromosomal aberrations”. The gene mutations entry in data set [8] was “no gene mutations”. For the same compound, the “His^+ Revertants” value came out at 20 ± 2 in data set [4] (TA98 (+S9), 10 μg/plate); 34 ± 8 in [4] (TA98 (+S9), 50 μg/plate); 38 ± 9 in [4] (TA98 (+S9), 100 μg/plate); 26 ± 9 in data set [4] (TA98 (+S9), 500 μg/plate); 36 ± 7 in data set [4] (TA98 (+S9), 1000 μg/plate); 19 ± 3 in data set [4] (TA98 (−S9), 10 μg/plate). The “His^+ Revertants” value is listed as 22 ± 7 in [4] (TA98 (−S9), 50 μg/plate); 27 ± 4 in data set [4] (TA98 (−S9), 100 μg/plate); 18 ± 3 in data set [4] (TA98 (−S9), 500 μg/plate); 22 ± 9 in data set [4] (TA98 (−S9), 1000 μg/plate); 573 ± 6 in [3] (TA102 (+S9), 10 μg/plate); 558 ± 14 in [3] (TA102 (+S9), 50 μg/plate). The “His^+ Revertants” value in data set [3] (TA102 (+S9), 100 μg/plate) was found to be 520 ± 10; in data set [3] (TA102 (+S9), 500 μg/plate) it was 477 ± 17; in [3] (TA102 (+S9), 1000 μg/plate) it was 504 ± 12; in data set [3] (TA102 (−S9), 10 μg/plate), 502 ± 4; in data set [3] (TA102 (−S9), 50 μg/plate), 489 ± 19; in data set [3] (TA102 (−S9), 100 μg/plate), 484 ± 13. For the same compound, the “His^+ Revertants” value in [3] (TA102 (−S9), 500 μg/plate) was 451 ± 18; in [3] (TA102 (−S9), 1000 μg/plate), 512 ± 40; in [5] (TA100 (+S9), 10 μg/plate), 97 ± 18; in data set [5] (TA100 (+S9), 50 μg/plate), 108 ± 18; in data set [5] (TA100 (+S9), 100 μg/plate), 105 ± 9; in data set [5] (TA100 (+S9), 500 μg/plate), 108 ± 9. Moreover, the “His^+ Revertants” value is reported as 102 ± 9 in data set [5] (TA100 (+S9), 1000 μg/plate); 110 ± 16 in data set [5] (TA100 (−S9), 10 μg/plate); 120 ± 17 in [5] (TA100 (−S9), 50 μg/plate); 107 ± 10 in [5] (TA100 (−S9), 100 μg/plate); 100 ± 17 in data set [5] (TA100 (−S9), 500 μg/plate); 112 ± 6 in [5] (TA100 (−S9), 1000 μg/plate). The “His^+ Revertants” value in [2] (TA1537 (+S9), 10 μg/plate) was found to be 12 ± 3; in data set [2] (TA1537 (+S9), 50 μg/plate) it was 10 ± 3; in data set [2] (TA1537 (+S9), 100 μg/plate), 10 ± 1; in [2] (TA1537 (+S9), 500 μg/plate) it was 11 ± 4; in data set [2] (TA1537 (+S9), 1000 μg/plate), 9 ± 3; in data set [2] (TA1537 (−S9), 10 μg/plate), 10 ± 3. Moreover, the “His^+ Revertants” value in data set [2] (TA1537 (−S9), 50 μg/plate) was determined as 14 ± 4; in [2] (TA1537 (−S9), 100 μg/plate) it was 10 ± 1; in data set [2] (TA1537 (−S9), 500 μg/plate) it was 12 ± 3; in data set [2] (TA1537 (−S9), 1000 μg/plate), 11 ± 4. Further, the “antimutagenic potential against heterocyclic aromatic amines” value in data set [9] is recorded as “strong antimutagenic potential”. Further, the mutagenicity entry in data set [10] is “no mutagenicity”. The “mutagenicity, mouse bone marrow micronuclei assay” value in data set [11] is “negative”. Moreover, the “mutagenicity, Ames test” value in data set [12] is recorded as “negative”. Besides, in data set [13] (tested concentrations), the “toxicity (background bacterial growth)” value is “absence of toxicity”. Also, the mutagenic potential entry in [13] (with and without S9) is “absence of a mutagenic effect”.
